# BindingDB's records for doi:10.1021/jm00122a003 (Tanabe Seiyaku, 1989)
# Experiments:
# [1] = target: Angiotensin-converting enzyme (Sus scrofa); assay: Inhibitory activity on Angiotensin I converting enzyme (ACE) obtained from pig renal cortex and hippuryl-histidyl-leucine as substrate
# [2] = target: Angiotensin-converting enzyme (Sus scrofa); assay: as above; remark: listed apart in the source
Compound,IC50 [1],IC50 [2]
CC[C@H](N[C@@H](CCc1ccccc1)C(=O)O)C(=O)N1C(=O)N(Cc2ccccc2)C[C@H]1C(=O)O,2.3 nM,–
CCCCCCCC[C@H](N[C@@H](C)C(=O)N1C(=O)N(C)C[C@H]1C(=O)O)C(=O)OCC,5100 nM,–
C[C@H](N[C@@H](CCc1ccccc1)C(=O)O)C(=O)N1C(=O)N(Cc2ccccc2)C[C@H]1C(=O)O,1.7 nM,–
CCCCN1C[C@@H](C(=O)O)N(C(=O)[C@H](C)N[C@@H](CCc2ccccc2)C(=O)O)C1=O,6.7 nM,–
CC(C)CC[C@H](N[C@@H](C)C(=O)N1C(=O)N(Cc2ccccc2)C[C@H]1C(=O)O)C(=O)O,3.3 nM,–
CCOC(=O)[C@H](CCc1ccccc1)N[C@@H](C)C(=O)N1C(=O)N(Cc2ccccc2)C[C@H]1C(=O)O,7900 nM,–
CC(C)C[C@H](N[C@@H](C)C(=O)N1C(=O)N(Cc2ccccc2)C[C@H]1C(=O)O)C(=O)O,2.1 nM,–
CCCCCCCC[C@H](N[C@@H](C)C(=O)N1C(=O)N(Cc2ccccc2)C[C@H]1C(=O)O)C(=O)OCC,2200 nM,–
CCCCCCCC[C@H](N[C@@H](CC)C(=O)N1C(=O)N(C)C[C@H]1C(=O)O)C(=O)O,2.4 nM,–
C[C@H](N[C@@H](CCc1ccccc1)C(=O)O)C(=O)N1C(=O)NC[C@H]1C(=O)O,3.5 nM,–
C[C@@H](N[C@@H](CCc1ccccc1)C(=O)O)C(=O)N1C(=O)N(Cc2ccccc2)C[C@H]1C(=O)O,2400 nM,–
C[C@H](N[C@@H](Cc1ccccc1)C(=O)O)C(=O)N1C(=O)N(Cc2ccccc2)C[C@H]1C(=O)O,11 nM,–
CCCCCCCC[C@H](N[C@@H](CC)C(=O)N1C(=O)N(Cc2ccccc2)C[C@H]1C(=O)O)C(=O)O,–,2.1 nM
CCCCCCCC[C@H](N[C@@H](C)C(=O)N1C(=O)N(Cc2ccccc2)C[C@H]1C(=O)O)C(=O)O,1.5 nM,–
C[C@H](N)C(=O)N1C(=O)N(Cc2ccccc2)C[C@H]1C(=O)O,–,1500 nM
